biological target: T1, KHK (Homo sapiens, UniProt P50053); assay: Measurement of in vitro activity of KHK inhibitor (Transcreener ADP2 TR-FRET Red Assay); type: biochemical; settings: purified His-tagged KHK expressed in E. coli; 30 min preincubation with inhibitor, 15 min substrate reaction; Morrison equation
T1 construct: His tag; made in house; host or cells: E. coli
T1 sequence (P50053 1-298): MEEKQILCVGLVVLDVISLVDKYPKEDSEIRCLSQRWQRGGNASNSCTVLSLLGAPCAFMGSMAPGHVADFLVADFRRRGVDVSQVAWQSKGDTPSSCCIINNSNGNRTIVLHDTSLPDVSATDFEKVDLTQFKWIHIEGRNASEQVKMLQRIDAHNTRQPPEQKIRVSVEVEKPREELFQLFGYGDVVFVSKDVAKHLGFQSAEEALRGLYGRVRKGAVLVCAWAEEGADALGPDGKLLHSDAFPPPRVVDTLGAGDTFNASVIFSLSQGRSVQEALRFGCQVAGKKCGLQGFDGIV
Description: KHK was expressed in E. coli, and purified using a His tag. To measure the activity of the purified KHK, a Transcreener ADP2 TR-FRET Red Assay kit of BellBrook Labs was used. The Transcreener ADP2 TR-FRET Red Assay kit is a method of measuring an amount of generated ADP using TR-FRET after proper concentrations of KHK and ATP, and a fructose-containing solution were reacted for 15 minutes. To measure the activity of a KHK inhibitor, KHK and a proper concentration of an inhibitor were first reacted for 30 minutes, and reacted with a solution containing a KHK substrate for 15 minutes. In addition, after the TR-FRET reaction for 1 hour, fluorescence was measured using an Envision apparatus of PerkinElmer. A setting value of the Envision apparatus was determined according to the TR-FRET optimization procedures published by BellBrook Labs.
The resulting value for each concentration of the KHK inhibitor is determined a ratio of a 665-nm wavelength and a 615-nm wavelength. Here, the 665/615 ratio was converted to an ADP concentration based on an ADP standard curve, and the inhibitory activity, a Ki value, was obtained using the Morrison equation in statistical software (Prizm).

| Ki [nM] | Structure (SMILES) |
| --- | --- |
| ≤ 100 | C[C@H]1CCN1c1nc(N2C[C@H]3C[C@@H](C2)[C@@H]3CC(=O)O)c2c(c1C#N)CCCC2 [Example 2, 2-((1R,5S,6S)-3-(4-cyano-3-((S)-2-methylazetidin-1-yl)-5,6,7,8-tetrahydroisoquinolin-1-yl)-3-azabicyclo[3.1.1]heptan-6-yl)acetic acid] |
| 100 to 1000 | O=C(O)C[C@@H]1[C@H]2CN(c3nc(N4CCCC4)nc4c3CCCC4(F)F)C[C@@H]12 [Example 12, 2-((1R,5S,6S)-3-(8,8-difluoro-2-(pyrrolidin-1-yl)-5,6,7,8-tetrahydroquinazolin-4-yl)-3-azabicyclo[3.1.0]hexan-6-yl)acetic acid] |
| ≤ 100 | C[C@H]1CCN1c1nc(N2C[C@H]3C[C@@H](C2)[C@@H]3CC(=O)O)c2c(c1C#N)CCC2 [Example 1, 2-((1R,5S,6S)-3-(4-cyano-3-((S)-2-methylazetidin-1-yl)-6,7-dihydro-5H-cyclopenta[c]pyridin-1-yl)-3-azabicyclo[3.1.1]heptan-6-yl)acetic acid] |
| 100 to 1000 | C[C@@H]1OCc2c1nc(N1CC[C@@H]1C)nc2N1C[C@@H]2[C@@H](CC(=O)O)[C@@H]2C1 [Example 7, 2-((1R,5S,6S)-3-((S)-7-methyl-2-((S)-2-methylazetidin-1-yl)-5,7-dihydrofuro[3,4-d]pyrimidin-4-yl)-3-azabicyclo[3.1.0]hexan-6-yl)acetic acid] |
| ≤ 100 | C[C@H]1CCN1c1nc(N2C[C@@H]3[C@@H](CC(=O)O)[C@@H]3C2)c2c(n1)C(F)(F)CC2 [Example 9, 2-((1R,5S,6S)-3-(7,7-difluoro-2-((S)-2-methylazetidin-1-yl)-6,7-dihydro-5H-cyclopenta[d]pyrimidin-4-yl)-3-azabicyclo[3.1.0]hexan-6-yl)acetic acid] |
| ≤ 100 | C[C@H]1CCN1c1nc(N2CC3CC(C2)C3CC(=O)O)c2c(c1C#N)CCCCC2 (stereo partly drawn) [Example 3, 2-(3-(4-cyano-3-((S)-2-methylazetidin-1-yl)-6,7,8,9-tetrahydro-5H-cyclohepta[c]pyridin-1-yl)-3-azabicyclo[3.1.1]heptan-6-yl)acetic acid] |
| 100 to 1000 | C[C@@H]1OCc2c1nc(N1CC[C@@H]1C)nc2N1C[C@H]2C[C@@H](C1)[C@@H]2CC(=O)O [Example 6, 2-((1R,5S,6S)-3-((S)-7-methyl-2-((S)-2-methylazetidin-1-yl)-5,7-dihydrofuro [3,4-d]pyrimidin-4-yl)-3-azabicyclo[3.1.1]heptan-6-yl)acetic acid] |
| ≤ 100 | C[C@H]1CCN1c1nc(N2C[C@H]3C[C@@H](C2)[C@@H]3CC(=O)O)c2c(n1)C(F)(F)CCC2 [Example 10, 2-((1R,5S,6S)-3-(8,8-difluoro-2-((S)-2-methylazetidin-1-yl)-5,6,7,8-tetrahydroquinazolin-4-yl)-3-azabicyclo[3.1.1]heptan-6-yl)acetic acid] |
| ≤ 100 | C[C@H]1CCN1c1nc(N2C[C@H]3C[C@@H](C2)[C@@H]3CC(=O)O)c2c(n1)C(F)(F)CC2 [Example 8, 2-((1R,5S,6S)-3-(7,7-difluoro-2-((S)-2-methylazetidin-1-yl)-6,7-dihydro-5H-cyclopenta[d]pyrimidin-4-yl)-3-azabicyclo[3.1.1]heptan-6-yl)acetic acid] |
| 100 to 1000 | C[C@H]1CCN1c1nc(N2CC3CC(C2)C3CC(=O)O)c2c(n1)C(C)(C)OC2 (stereo partly drawn) [Example 5, 2-(3-(7,7-dimethyl-2-((S)-2-methylazetidin-1-yl)-5,7-dihydrofuro[3,4-d]pyrimidin-4-yl)-3-azabicyclo[3.1.1]heptan-6-yl)acetic acid] |
| ≤ 100 | C[C@H]1CCN1c1nc(N2C[C@@H]3[C@@H](CC(=O)O)[C@@H]3C2)c2c(n1)C(F)(F)CCC2 [Example 11, 2-((1R,5S,6S)-3-(8,8-difluoro-2-((S)-2-methylazetidin-1-yl)-5,6,7,8-tetrahydroquinazolin-4-yl)-3-azabicyclo[3.1.0]hexan-6-yl)acetic acid] |
| ≤ 100 | C[C@H]1CCN1c1nc(N2C[C@H]3C[C@@H](C2)[C@@H]3CC(=O)O)c2c(c1C#N)CCOC2 [Example 4, 2-((1R,5S,6S)-3-(5-cyano-6-((S)-2-methylazetidin-1-yl)-3,4-dihydro-1H-pyrano[3,4-c]pyridin-8-yl)-3-azabicyclo[3.1.1]heptan-6-yl)acetic acid] |
